Laboratory results taken from patent US5877183A, “Treatment of lipid and glucose metabolism disorders with dopamine and serotonin agonists” (Ergo Research Corporation, priority 1997, dated 1999).

How the values were obtained:
[1] = cited from earlier work
[2] = two-week treatment of C57BL/6 ob/ob mice (body weight, fat and lean body mass, food consumption, blood glucose, serum free fatty acids); assay type: in vivo, C57BL/6 ob/ob mice (lacking a functional leptin protein); conditions: two weeks
Method: Different groups (8 mice per group) of 4-8 week old C57BL/6 ob/ob mice (lacking a functional leptin protein) were treated with:
1) vehicle at 1 and 11 hours after light onset (HALO);
2) Buspirone ("Busp"; a 5HT1A agonist) (3 mg/kg) at 11 HALO;
3) DOI (a 5HT2 agonist) (8 mg/kg) at 11 HALO;
4) RU24969 ("RU") (5HT1B agonist) (3 mg/kg) at 11 HALO;
5) bromocriptine ("BC") (12 mg/kg BW) at 1 HALO;
6) BC (12 mg/kg) at 1 HALO plus Buspirone (3 mg/kg) at 11 HALO;
7) BC (12 mg/kg) at 1 HALO plus DOI (8 mg/kg) at 11 HALO;
8) BC (12 mg/kg) at 1 HALO plus RU (3 mg/kg) at 11 HALO;
9) SKF38393 ("SKF") (D1 agonist) (20mg/kg BW) at 1 HALO; and
10) SKF(20 mg/kg) at 1 HALO plus RU (3 mg/kg) at 11 HALO for two weeks. Animals were held on 12-hour daily photoperiods and allowed to feed ad libitum. Food consumption was monitored daily for 3 days before the initiation of treatment throughout the 14-day treatment period. Animals were sacrificed between 1 and 3 HALO on the day following the final treatment and plasma was collected for the analyses of insulin, glucose, and lipids while the carcasses were solubilized in ethanolic KOH and analyzed for protein and lipid content. Blood glucose was measured with an Accu-Chek Advantage glucose meter (Boehringer). Serum insulin was measured with a radioimmunoassay kit (Linco Research) using rat insulin standards. Total triglycerides and free fatty acids were measured with kits from Sigma Diagnostics and Wako Chemicals, respectively. Body weight gain or loss as a result of treatment is depicted in FIG. 1. Fat body mass is depicted in FIG. 2.

[3] = in vivo; cited from earlier work
[4] = cited from earlier work; remark: listed apart in the source
[5] = timed administration; cited from earlier work

SMILES: CC[C@H](C)C(=O)O[C@H]1C[C@@H](C)C=C2C=C[C@H](C)[C@H](CC[C@@H]3C[C@@H](O)CC(=O)O3)[C@H]21 [lovastatin]
- total cholesterol (effect in words) ([1]; in vivo): reduces total cholesterol
- increase in HDL concentrations ([1]; lovastatin (MEVACOR)): 5-10%

SMILES: O=C1CC2(CCCC2)CC(=O)N1CCCCN1CCN(c2ncccn2)CC1 [Buspirone]
- body fat stores / fat body mass (effect in words) [2]: ineffective
- body weight gain (effect in words) [2]: ineffective
- food intake / food consumption (effect in words) [2]: ineffective

SMILES: COc1cc(CC(C)N)c(OC)cc1I (stereo not drawn) [DOI]
- body fat stores / fat body mass (effect in words) [2]: ineffective
- body weight gain (effect in words) [2]: ineffective
- food intake / food consumption (effect in words) [2]: ineffective

SMILES: CCOC(=O)C(C)(C)Oc1ccc(Cl)cc1 [clofibrate]
- side effects [3]: nephrotic syndromes, myalgia, nausea, and abdominal pain

SMILES: CC(C)C[C@H]1C(=O)N2CCC[C@H]2[C@]2(O)O[C@](NC(=O)[C@@H]3C=C4c5cccc6[nH]c(Br)c(c56)C[C@H]4N(C)C3)(C(C)C)C(=O)N12 [Bromocriptine, 2-bromo-alpha-ergocriptine]
- body fat stores / fat body mass (effect in words) [2]: ineffective
- body weight gain (effect in words) [2]: ineffective
- food intake / food consumption (effect in words) [2]: ineffective
- locomotor stimulation and stereotyped behavior responses ([4]; after depletion of endogenous dopamine): blocked by depletion of endogenous dopamine
- responsiveness in dopamine depleted animals given a D1 dopamine receptor agonist ([4]; dopamine depleted animals plus D1 agonist): restored
- body fat stores (effect in words) [5]: reduce body fat stores
- food consumption (effect in words) [5]: without a concomitant reduction in food consumption
- hyperinsulinemia, hyperlipidemia, and glucose intolerance (effect in words) [5]: reduce hyperinsulinemia, hyperlipidemia, and glucose intolerance

SMILES: Oc1cc2c(cc1O)C(c1ccccc1)CNCC2 (stereo not drawn) [SKF]
- body weight gain (effect in words) [2]: significant decrease
- food intake / food consumption (effect in words) [2]: significant decrease

SMILES: COc1ccc2[nH]cc(C3=CCNCC3)c2c1 [RU]
- body weight gain (effect in words) [2]: significant decrease
- food intake / food consumption (effect in words) [2]: significant decrease
